The nature of series [1]: Plasma concentration in monkeys (ex vivo occupancy study). The conditions noted are these: male, rhesus monkey, once on day 4. As for the experimental part: (§1) The vehicle (0.5 w/v % methylcellulose 400 cP solution) or the compound of the present invention (0.4 or 1 mg/kg) was orally administered twice daily for 3 days, once on day 4 to male rhesus monkeys (Shin Nippon Biomedical Laboratories, Ltd., at the time of use: 4 to 6 kg). After 2 hours of the final administration, in the same manner as Biological example 1, brain TSPO occupancy of the compound of the present invention relative to the specific binding of the vehicle control group was measured by measuring the specific binding amount of [3H] PBR28 on brain (anterior cingulate cortex, caudate nucleus, amygdala, hippocampus and occipital lobe) homogenates (n=3 in vehicle control group, n=5 in each the compound of the present invention treated group). As a result, the average TSPO occupancy of brain 5 sites was 37.9 and 56.6% in 0.4 and 1 mg/kg group of the compound of the present invention. The average plasma concentration of the compound of the present invention was 23.9 and 154 ng/mL in 0.4 and 1 mg/kg group.

For series [2], the target named is T1, brain TSPO (Homo sapiens, UniProt P30536).
T1 construct: from tissue; host or cells: living human brain (PET, healthy adults)
T1 sequence (P30536 whole entry): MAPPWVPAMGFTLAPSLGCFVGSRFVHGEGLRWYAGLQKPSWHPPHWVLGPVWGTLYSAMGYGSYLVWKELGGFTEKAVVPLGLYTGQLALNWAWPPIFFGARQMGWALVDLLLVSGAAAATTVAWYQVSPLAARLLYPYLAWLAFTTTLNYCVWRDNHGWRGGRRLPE
Put plainly: Brain occupancy using PET in humans (2), different analytical method, Bmax fixed to 1. The format is in vivo. The settings on record: [11C] PBR28, Emax model with Bmax fixed to 1, mean plasma concentration, SAS, read-out: Ki, blood concentration which can be achieved 50% Bmax (converted). The method, then:
The data in Biological example 8 were analyzed in a different analytical method. Brain occupancy, relative to the binding potential (BP) before administration, was calculated by calculating the BP of each interest area from the brain radioactivity concentration time change of [^11C] PBR28, nonspecific binding amount and arterial blood plasma radioactivity which was corrected in a non-metabolic rate (n=3 to 4 in each group). Further, the average TSPO occupancy of all interest areas was determined from the Lassen plot that obtained by the horizontal axis of the distribution volume before administration (Vt baseline) and the vertical axis of the value obtained by subtracting the distribution volume after administration from the distribution volume before the administration (Vt baseline−Vt onmed) for each interest area. […] As parameters in this model, Bmax (a maximum number of binding) and Ki (ng/mL) (a blood concentration which can be achieved 50% Bmax) were used. Bmax was fixed to 1 in this analysis, and SAS Version 9.2 (SAS Institute) was used as an analysis software. Parameters and formula of Emax model were shown in the following.
TSPO Occupancy (%)=Bmax×Cave/(Ki+Cave)×100
Cave=Mean plasma concentration (ng/mL)

For series [3], the system named is brain TSPO. Put plainly: Ex vivo brain TSPO occupancy in monkeys, [3H] PBR28. The conditions noted are these: rhesus monkey, once on day 4, 2 h after final dose. The method, then:
as §1

Series [4] deals with fear conditioning stress rats. Put plainly: Antianxiety effect (1): freezing time in fear conditioning stress rats. Type of series: in vivo. The settings on record: rat, 1 and 3 mg/kg oral, 2 h before 30 min stress load, Dunnett test. The text has this: Male Crj: CD (SD) rats (Charles River Laboratories Japan, Inc., at the time of evaluation: 8 weeks old) were used to load conditioned fear stress in accordance with Funatsu et al. method (European Journal of Pharmacology, Vol. 573, p. 190-195, 2007). The day before of fear conditioning, the rat was put in an electric shock device which was placed in a soundproof box to acclimate to the evaluation environment. The day of fear conditioning, the rat was put in the electric shock device. The conditioning, 5 seconds electric current load (2.0 mA) and light irradiation (3 pieces of 40 W fluorescent bulbs) followed by 3 seconds warning sound (60 to 70 db), was carried out a total 15 times at 1 minute intervals. The rat of the non-stressed group was given a warning sound and light irradiation without performing the electric current load during fear conditioning. The day after the fear conditioning, the vehicle (0.5 w/v % methylcellulose 400 cP solution) or the compound of the present invention (0.3, 1 or 3 mg/kg) was orally administered to the rat. Two hours after the administration, the rat was put in the electric shock device. […] The behavior of the rat was photographed with a video camera during the 30 minutes of stress load and freezing time was measured.

Series [5] concerns female diarrhea-type IBS patients. Put plainly: HAM-A (Hamilton Anxiety Scale) in the clinical trial of Biological example 10. Type of series: in vivo, human. The settings on record: 60 mg treatment. As for the experimental part: In the clinical trial of Biological example 10, the therapeutic effect of the compound of the present invention 60 mg treatment on depression and anxiety-related diseases were evaluated using PSS (Perceived Stress Scale) (refer to Journal of Health and Social Behavior, 24, 386-396, 1983), HAM-A (Hamilton Anxiety Scale) (refer to The British journal of medical psychology, 32, 50-55, 1959) and HAM-D (Hamilton Depression scale) (refer to Journal of Neurology, Neurosurgery and Psychiatry, 23, 56-62, 1960) as rating scales.

Series [6] addresses T1, brain TSPO. Put plainly: Brain occupancy using PET in humans (1), [11C] PBR28, Emax model. Type of series: in vivo. The method, then:
Male and female healthy adults were used. The compound of the present invention (6 to 200 mg) was once orally administered. Before and after 24 hours of the administration, a PET measurement using [^11C] PBR28 was performed in the following manner.
Measurement equipment: PET; ECAT HR+(Siemens) Measurement methods: 90 minutes blank measurement and 10 to 15 minutes transmission measurement were performed using 68Ge/68Ga calibration source. Next, [^11C] PBR28 was intravenously bolus administrated over a period of about 30 seconds. Emission measurement (total 90 minutes, 26 frames) was started together with the administration while an arterial blood sampling for measuring the plasma concentration.
Brain occupancy, relative to the binding potential (BP) before the administration, was calculated by calculating the BP of each interest area from the brain radioactivity concentration time change of [^11C] PBR28, nonspecific binding amount and arterial blood plasma radioactivity which was corrected in a non-metabolic rate (n=3 to 4 in each group). Further, the average TSPO occupancy of all interest areas was determined from the Lassen plot that obtained by the horizontal axis of the distribution volume before administration and the vertical axis of the value obtained by subtracting the distribution volume after administration from the distribution volume before the administration for each interest area. […] As parameters in this model, Emax (a maximal effect) and EC50 (ng/mL) (a blood concentration which can be achieved 50% Emax) were used. An analysis software NONMEM7.1.2 (ICON Development Solutions) was used in this analysis. Parameters and formula of Emax model were shown in the following.
TSPO Occupancy (%)=(θ1×X)/(θ2+X)
X=Plasma concentration (ng/mL)

Setting [7] is: 0.4 mg/kg oral twice daily 3 days.
Setting [8] is: 1 mg/kg oral twice daily 3 days.

With `COc1cc(Cl)ccc1[C@H]1c2[nH]c3cccc(F)c3c2C2(CC2)CN1C(C)=O` [the compound of the present invention, (1S)-2-acetyl-1-(4-chloro-2-methoxyphenyl)-5-fluoro-1,2,3,9-tetrahydrospiro[β-carboline-4,1′-cyclopropane]], the concentration at 2 h was determined as 23.9 ng/mL in series [1] (setting [7]) and 154 ng/mL in series [1] (setting [8]). Also, the Ki in series [2] was 34.1 nM. Further, the “average TSPO occupancy of brain 5 sites” value in series [3] (setting [7]) came to 37.9%; in series [3] (setting [8]), 56.6%. Also, in series [4], the “freezing time vs. vehicle control group” value is “shortened this extended freezing time significantly”. In addition, the “HAM-A score, 4th week” value in series [5] (Patient A, baseline 18) is reported as 4; in series [5] (Patient B, baseline 23), 1; in series [5] (Patient D, baseline 22) it was 4; in series [5] (Patient E, baseline 18), 5. For the same compound, the “HAM-A score, Amount of change from baseline” value in series [5] (Patient A, baseline 18, 4th week) is listed as −14; in series [5] (Patient B, baseline 23, 4th week) it was −22; in series [5] (Patient D, baseline 22, 4th week) it was −18; in series [5] (Patient E, baseline 18, 4th week), −13. Also, the “plasma concentration that makes brain TSPO occupancy reach about 50%” value in series [6] (Emax model) was “about 15 ng/mL”. For the same compound, the “plasma concentration that makes brain TSPO occupancy reach about 85%” value in series [6] (Emax model) is on record as “about 150 ng/mL”. In addition, the “θ1 (=Emax), maximal effect of Emax model of TSPO occupancy” value in series [6] ([11C] PBR28, 6 to 200 mg single oral dose, NONMEM, in % (unit assumed)) turned out to be 92.8±3.59. In addition, the EC50 in series [6] ([11C] PBR28, 6 to 200 mg single oral dose, NONMEM, read-out: θ2 (=EC50), blood concentration which can be achieved 50% Emax (converted)) was 34.3 nM.

The record behind these values is patent publication US20170119742A1, “MEDICAMENT FOR PREVENTING AND/OR TREATING STRESS DISEASES” (ONO PHARMACEUTICAL CO., LTD., priority 2014, published 2017).
